pIC50: −log10 of the molar value. Where two headings read alike, the source gives them in different places.

The results in this text go back to patent US20250289789A1, “REVERSIBLE LYSINE COVALENT MODIFIERS OF CDK2 AND USES THEREOF” (Terremoto Biosciences, Inc., priority 2023, published 2025).

What all share (type): cell-based
The target of assay [1] is T1, CDK4-NanoLuc fusion with CCND1 in 293T or 293 cells (Homo sapiens, UniProt P11802).
T1 construct: host or cells: 293T (ATCC CRL-3216) or 293 (ATCC CRL-1573)
T1 sequence (P11802 whole entry, the tested form may be a part): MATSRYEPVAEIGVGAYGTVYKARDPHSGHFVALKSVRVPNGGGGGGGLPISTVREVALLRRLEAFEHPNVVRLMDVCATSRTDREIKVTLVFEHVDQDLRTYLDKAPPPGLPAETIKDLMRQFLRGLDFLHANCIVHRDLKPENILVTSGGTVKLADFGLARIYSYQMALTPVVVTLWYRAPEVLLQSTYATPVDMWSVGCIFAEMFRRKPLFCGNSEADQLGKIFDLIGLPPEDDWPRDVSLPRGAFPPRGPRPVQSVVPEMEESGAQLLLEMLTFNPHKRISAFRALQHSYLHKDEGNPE
T1 sequence (P24385 whole entry partner, the tested form may be a part): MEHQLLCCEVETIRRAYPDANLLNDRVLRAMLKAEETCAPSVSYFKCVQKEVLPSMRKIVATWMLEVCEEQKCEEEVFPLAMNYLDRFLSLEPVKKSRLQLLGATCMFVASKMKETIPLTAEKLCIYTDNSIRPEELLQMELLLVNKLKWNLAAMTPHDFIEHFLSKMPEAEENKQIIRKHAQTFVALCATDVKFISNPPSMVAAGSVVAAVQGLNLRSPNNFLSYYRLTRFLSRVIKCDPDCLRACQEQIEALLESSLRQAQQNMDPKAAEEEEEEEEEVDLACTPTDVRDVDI
Briefly: NanoBRET Target Engagement (TE) Intracellular Kinase Assay, CDK4/CCND1. Particulars: NanoBRET TE intracellular kinase assay, 2-hour incubation, read-out: NanoBRET-CDK4/D1 IC50. (In general: Bioluminescence resonance energy transfer reports proximity on the nanometre scale.)

The target of assay [2] is T2, CDK1-NanoLuc fusion with CCNB1 in 293T or 293 cells (Homo sapiens, UniProt P06493).
T2 construct: host or cells: 293T (ATCC CRL-3216) or 293 (ATCC CRL-1573)
T2 sequence (P06493 whole entry, the tested form may be a part): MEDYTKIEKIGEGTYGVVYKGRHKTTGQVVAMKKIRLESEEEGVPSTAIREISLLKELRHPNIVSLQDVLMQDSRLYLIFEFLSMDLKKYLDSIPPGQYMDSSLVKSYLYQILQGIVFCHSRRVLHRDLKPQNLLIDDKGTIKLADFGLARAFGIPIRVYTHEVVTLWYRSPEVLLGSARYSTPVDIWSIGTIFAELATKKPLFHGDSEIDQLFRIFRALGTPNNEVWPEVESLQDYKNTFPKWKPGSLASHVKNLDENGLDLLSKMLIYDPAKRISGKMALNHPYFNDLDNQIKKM
T2 sequence (P14635 whole entry partner, the tested form may be a part): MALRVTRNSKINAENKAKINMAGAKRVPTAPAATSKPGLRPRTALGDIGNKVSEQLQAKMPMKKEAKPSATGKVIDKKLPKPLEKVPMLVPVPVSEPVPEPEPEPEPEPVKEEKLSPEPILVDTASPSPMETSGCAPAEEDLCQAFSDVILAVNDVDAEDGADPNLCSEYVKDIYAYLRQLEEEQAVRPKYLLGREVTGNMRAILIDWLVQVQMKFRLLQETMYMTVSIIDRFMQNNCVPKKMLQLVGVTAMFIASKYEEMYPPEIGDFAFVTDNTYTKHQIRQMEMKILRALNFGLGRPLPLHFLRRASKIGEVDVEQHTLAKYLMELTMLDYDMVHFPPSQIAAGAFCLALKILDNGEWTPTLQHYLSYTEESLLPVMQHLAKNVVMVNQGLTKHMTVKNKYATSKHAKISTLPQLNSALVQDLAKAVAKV
As to the kind of experiment: NanoBRET Target Engagement (TE) Intracellular Kinase Assay, CDK1/CCNB1. As to conditions: NanoBRET TE intracellular kinase assay, 2-hour incubation, read-out: NanoBRET-CDK1/B1 IC50. Summed up:
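IC50 derived by four-parameter logistic fit of DMSO-normalized acceptor/donor (610/450 nm) BRET ratio. Compound and Tracer K-10 were applied together for 2 h at 37° C to 293 or 293T cells transfected 24 h earlier with CDK1-NanoLuc fusion and cyclin B1.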

Assay [3] has as its system Phospho-Rb Ser807/811 in OVCAR3 cells. Briefly: OVCAR3 Phospho-Rb Ser807/811 HTRF assay. As to conditions: Homo sapiens, OVCAR3 cells, Phospho-Rb Ser807/811 HTRF, 1 hour incubation, read-out: pRb-OVCAR3 IC50. The protocol:
Cells were trypsinized and resuspended in 1 mM hydroxyurea (Sigma; H8627), 90% RPMI and 10% fetal bovine serum. […] Dose response curve normalized to DMSO control was plotted using four-parameter logistic model for IC50 calculation.
In general terms: Time-resolved FRET reads energy transfer from a long-lived donor to a nearby acceptor.

Assay [4] deals with T3, CDK2-NanoLuc fusion with CCNE1 in 293T or 293 cells (Homo sapiens, UniProt P24941).
T3 construct: host or cells: 293T (ATCC CRL-3216) or 293 (ATCC CRL-1573)
Briefly: NanoBRET Target Engagement (TE) Intracellular Kinase Assay, CDK2/CCNE1. As to conditions: 2-hour incubation.

[5] abbreviates: NanoBRET TE intracellular kinase assay, read-out: NanoBRET-CDK2/E1 IC50.
Where [6] appears, read: NanoBRET-CDK2/E1 IC50, NanoBRET TE intracellular kinase assay.

Turning to `CC1(NC(=O)O[C@@H]2CC[C@H](c3cc(NC(=O)COc4cccc(O)c4C=O)n[nH]3)C2)CCC1` [Compound 83, (1R,3S)-3-{5-[2-(2-formyl-3-hydroxyphenoxy)acetamido]-2H-pyrazol-3-yl}cyclopentyl N-(1-methylcyclobutyl) carbamate; trifluoroacetic acid], the pIC50 is 5.60 in assay [1]; 8.21 in assay [2]; 7.08 in assay [3] (OVCAR-3, 1 h); 8.32 in assay [4] (setting [5]).
As for `CC(C)(C)NC(=O)O[C@@H]1CC[C@H](c2cc(NC(=O)COc3cccc(O)c3C=O)n[nH]2)C1` [Compound 84, (1R,3S)-3-(3-(2-(2-formyl-3-hydroxyphenoxy)acetamido)-1H-pyrazol-5-yl)cyclopentyl tert-butylcarbamate], the pIC50 in assay [1] was 5.28; in assay [2], 7.82; in assay [3] (OVCAR-3, 1 h) it was 6.64; in assay [4] (setting [5]) it was 8.23.
On to `O=Cc1c(O)cccc1OCC(=O)Nc1cc([C@H]2CC[C@@H](OC(=O)N3CCCC3)C2)[nH]n1` [Compound 85, (1R,3S)-3-{5-[2-(2-formyl-3-hydroxyphenoxy)acetamido]-2H-pyrazol-3-yl}cyclopentyl pyrrolidine-1-carboxylate], for which the pIC50 in assay [1] was < 5.00; in assay [2], 7.63; in assay [3] (OVCAR-3, 1 h), 6.75; in assay [4] (setting [5]), 8.59.
The like results for `O=Cc1c(O)cccc1OCC(=O)Nc1cc([C@H]2CC[C@@H](OC(=O)NC3CC3)C2)[nH]n1` [Compound 86, (1R,3S)-3-(3-(2-(2-formyl-3-hydroxyphenoxy)acetamido)-1H-pyrazol-5-yl)cyclopentyl cyclopropylcarbamate] were, in that order, < 5.00, 7.49, 6.67 and 8.43.
The matching figures for `O=Cc1c(O)cccc1OCC(=O)Nc1cc([C@H]2CC[C@@H](OC(=O)NC3CCC3)C2)[nH]n1` [Compound 87, (1R,3S)-3-(3-(2-(2-formyl-3-hydroxyphenoxy)acetamido)-1H-pyrazol-5-yl)cyclopentyl cyclobutylcarbamate]: 5.01, 7.61, 6.68 and 8.56.
The like results for `O=Cc1c(O)cccc1OCC(=O)Nc1cc([C@H]2CC[C@@H](OC(=O)NC3CCCC3)C2)[nH]n1` [Compound 88, (1R,3S)-3-(3-(2-(2-formyl-3-hydroxyphenoxy)acetamido)-1H-pyrazol-5-yl)cyclopentyl cyclopentylcarbamate] were, in that order, < 5.00, 7.38, 6.64 and 8.46.
Take `CC(C)NC(=O)O[C@@H]1CC[C@H](c2cc(NC(=O)C3CCN(c4cccc(O)c4C=O)CC3)n[nH]2)C1` [Compound 92, (1R,3S)-3-{5-[1-(2-formyl-3-hydroxyphenyl)piperidine-4-amido]-2H-pyrazol-3-yl}cyclopentyl N-isopropylcarbamate]: the pIC50 was 5.42 in assay [1]; 6.56 in assay [2]; 5.62 in assay [3] (OVCAR-3, 1 h); 7.79 in assay [4] (setting [5]).
The matching figures for `CC(C)NC(=O)O[C@@H]1CC[C@H](c2cc(NC(=O)C3CCN(c4cccc(O)c4C=O)C3)n[nH]2)C1` (stereo partly drawn) [Compound 93, (1R,3S)-3-{5-[1-(2-formyl-3-hydroxyphenyl)pyrrolidine-3-amido]-2H-pyrazol-3-yl}cyclopentyl N-isopropylcarbamate]: 5.64, 6.77, 6.41 and 8.07.
The matching figures for `COc1cccc(OCC(=O)Nc2cc([C@H]3CC[C@@H](OC(=O)NC(C)C)C3)[nH]n2)c1C=O` [Compound 95, (1R,3S)-3-{5-[2-(2-formyl-3-methoxyphenoxy)acetamido]-2H-pyrazol-3-yl}cyclopentyl N-isopropylcarbamate; trifluoroacetic acid]: < 5.00, 7.67, 6.94 and 8.90.
The like results for `CC(C)NC(=O)O[C@@H]1CC[C@H](c2cc(NC(=O)CSc3cccc(O)c3C=O)n[nH]2)C1` [Compound 96, (1R,3S)-3-(5-{2-[(2-formyl-3-hydroxyphenyl)sulfanyl]acetamido}-2H-pyrazol-3-yl)cyclopentyl N-isopropylcarbamate; trifluoroacetic acid] were, in that order, 5.74, 6.89, 6.22 and 8.15.
As to `CC(C)NC(=O)O[C@@H]1CC[C@H](c2cc(NC(=O)COc3cccc(Cl)c3C=O)n[nH]2)C1` [Compound 97, (1R,3S)-3-{5-[2-(3-chloro-2-formylphenoxy)acetamido]-2H-pyrazol-3-yl}cyclopentyl N-isopropylcarbamate], the pIC50 in assay [1] is 5.03; in assay [2], 5.94; in assay [3] (OVCAR-3, 1 h), 5.52; in assay [4] (setting [5]) it was 8.06.
The like results for `CC(C)NC(=O)O[C@@H]1CC[C@H](c2cc(NC(=O)COc3cccc(-c4nccs4)c3C=O)n[nH]2)C1` [Compound 98, (1R,3S)-3-(3-(2-(2-formyl-3-(thiazol-2-yl)phenoxy)acetamido)-1H-pyrazol-5-yl)cyclopentyl isopropylcarbamate] were, in that order, < 5.00, 5.83, 5.48 and 7.92.
The like results for `C#Cc1cc(O)c(C=O)c(OCC(=O)Nc2cc([C@H]3CC[C@@H](OC(=O)NC(C)C)C3)[nH]n2)c1` [Compound 99, (1R,3S)-3-(3-(2-(5-ethynyl-2-formyl-3-hydroxyphenoxy)acetamido)-1H-pyrazol-5-yl)cyclopentyl isopropylcarbamate] were, in that order, < 5.00, 7.67, 6.59 and 8.50.
The matching figures for `CC(C)NC(=O)O[C@@H]1CC[C@H](c2cc(NC(=O)COc3cc(OC(F)F)cc(O)c3C=O)n[nH]2)C1` [Compound 100, (1R,3S)-3-(5-{2-[5-(difluoromethoxy)-2-formyl-3-hydroxyphenoxy]acetamido}-2H-pyrazol-3-yl)cyclopentyl N-isopropylcarbamate]: 5.06, 7.89, 6.92 and 8.14.
For `C[C@@H]1CCCN1C(=O)O[C@@H]1CC[C@H](c2cc(NC(=O)COc3cccc(O)c3C=O)n[nH]2)C1` [Compound 101, (1R,3S)-3-{5-[2-(2-formyl-3-hydroxyphenoxy)acetamido]-2H-pyrazol-3-yl}cyclopentyl (2R)-2-methylpyrrolidine-1-carboxylate; trifluoro-acetic acid], the pIC50 in assay [1] is 5.04; in assay [2] it was 7.69; in assay [3] (OVCAR-3) it was 6.73; in assay [4] (setting [6]), 8.24.
The like results for `C[C@H]1CCCN1C(=O)O[C@@H]1CC[C@H](c2cc(NC(=O)COc3cccc(O)c3C=O)n[nH]2)C1` [Compound 102, (S)-((1R,3S)-3-(3-(2-(2-formyl-3-hydroxyphenoxy)acetamido)-1H-pyrazol-5-yl)cyclopentyl) 2-methylpyrrolidine-1-carboxylate; trifluoroacetic acid] were, in that order, 5.54, 8.08, 7.11 and 8.38.
